Experiment [1] deals with MOLM-13 cells. Description: Cell viability assay (CellTiter-Glo) in MOLM-13 cells, alone or with gilteritinib. It counts as cell-based. Conditions: Homo sapiens, MOLM-13 cells, three days, CellTiter-Glo.
Experiment [2] deals with MV4;11 cells. Kind of experiment: Cell viability assay (CellTiter-Glo) in MV4;11 cells, alone or with gilteritinib. Conditions: Homo sapiens, MV4;11 cells, three days, CellTiter-Glo, read-out: MV4. The format is cell-based. On the technique in general: Cellular ATP, detected with luciferase, serves as a proxy for viable cell number.
The mark [3] stands for this setting: MOLM-13, 72 h, compound alone (without gilteritinib), read-out: MOLM-13 IC50.
Where [4] appears, read: MOLM-13, 72 h, with gilteritinib 20 nM, read-out: MOLM-13 IC50 gilteritinib.
[5] abbreviates: MV4-11, 72 h, compound alone (without gilteritinib), 11 IC50.
Where [6] appears, read: MV4-11, 72 h, with gilteritinib 10 nM, 11 IC50 gilteritinib.
[7] abbreviates: MOLM-13, 72 h, compound with gilteritinib 20 nM, read-out: MOLM-13 IC50 gilteritinib.
[8] abbreviates: MV4-11, 72 h, compound with gilteritinib 10 nM, 11 IC50 gilteritinib.

Where two headings read alike, the source gives them in different places. Some results are limits rather than exact numbers.

In the case of `O=C1CCC(N2C(=O)c3ccc(NCCC45CC(C(=O)N6CCC(n7cc(-c8cnc9ccccc9n8)cn7)CC6)(C4)C5)cc3C2=O)C(=O)N1` (stereo not drawn) [GS-194, 2-(2,6-Dioxopiperidin-3-yl)-5-((2-(3-(4-(4-(quinoxalin-2-yl)-1H-pyrazol-1-yl)piperidine-1-carbonyl)bicyclo[1.1.1]pentan-1-yl)ethyl)amino)isoindoline-1,3-dione], the IC50 in experiment [1] (setting [3]) is 0.1 to 1 µM; in experiment [1] (setting [4]), under 0.01 µM; in experiment [2] (setting [5]), 0.01 to 0.1 µM; in experiment [2] (setting [6]), under 0.01 µM.
As for `O=C1CCC(N2C(=O)c3ccc(NCCC[C@H]4C[C@H](n5cc(-c6cccc(N7CCC(O)CC7)n6)cn5)C4)cc3C2=O)C(=O)N1` (stereo partly drawn) [GS-252, 2-(2,6-Dioxopiperidin-3-yl)-5-((3-(trans-3-(4-(6-(4-hydroxypiperidin-1-yl)pyridin-2-yl)-1H-pyrazol-1-yl)cyclobutyl)propyl)amino)isoindoline-1,3-dione], the IC50 in experiment [1] (setting [3]) is over 1 µM; in experiment [1] (setting [4]) it was over 1 µM; in experiment [2] (setting [5]), 0.1 to 1 µM; in experiment [2] (setting [6]), over 1 µM.
For the compound `Cc1nn([C@H]2C[C@@H](CCCNc3ccc4c(c3)C(=O)N(C3CCC(=O)NC3=O)C4=O)C2)cc1-c1cnc2cc(N3CCOCC3)ccc2n1` (stereo partly drawn) [GS-422, 2-(2,6-dioxopiperidin-3-yl)-5-((3-(cis-3-(3-methyl-4-(6-morpholinoquinoxalin-2-yl)-1H-pyrazol-1-yl)cyclobutyl)propyl)amino)isoindoline-1,3-dione], the IC50 in experiment [1] (setting [3]) is 0.01 to 0.1 µM; in experiment [1] (setting [7]) it was under 0.01 µM; in experiment [2] (setting [5]), 0.01 to 0.1 µM; in experiment [2] (setting [8]) it was under 0.01 µM.
`O=C1CCC(N2C(=O)c3ccc(NC[C@H]4C[C@@H](n5cc(-c6cnc7ccccc7n6)cn5)C4)cc3C2=O)C(=O)N1` (stereo partly drawn) [GS-179, 2-(2,6-Dioxopiperidin-3-yl)-5-(((cis-3-(4-(quinoxalin-2-yl)-1H-pyrazol-1-yl)cyclobutyl)methyl)amino)isoindoline-1,3-dione]: the IC50 was over 1 µM in experiment [1] (setting [3]), 0.1 to 1 µM in experiment [1] (setting [4]), over 1 µM in experiment [2] (setting [5]) and over 1 µM in experiment [2] (setting [6]).
As for `O=C1CCC(N2C(=O)c3ccc(NCCCN4CC(N5CCN(c6ccccn6)CC5)C4)cc3C2=O)C(=O)N1` (stereo not drawn), the IC50 is over 1 µM in experiment [1] (72 h, compound alone (without gilteritinib), read-out: MOLM-13 IC50); 0.01 to 0.1 µM in experiment [1] (72 h, with gilteritinib 20 nM, read-out: MOLM-13 IC50 gilteritinib); over 1 µM in experiment [2] (72 h, compound alone (without gilteritinib), 11 IC50); over 1 µM in experiment [2] (72 h, with gilteritinib 10 nM, 11 IC50 gilteritinib).
Turning to `O=C1CCC(N2C(=O)c3ccc(NC[C@H]4C[C@H](n5nccc5C5CC5)C4)cc3C2=O)C(=O)N1` (stereo partly drawn) [GS-590, 5-(((trans-3-(5-cyclopropyl-1H-pyrazol-1-yl)cyclobutyl)methyl)amino)-2-(2,6-dioxopiperidin-3-yl)isoindoline-1,3-dione], the IC50 was under 0.01 µM in experiment [1] (setting [3]), 0.1 to 1 µM in experiment [1] (setting [7]), over 1 µM in experiment [2] (setting [5]) and 0.1 to 1 µM in experiment [2] (setting [8]).
With `O=C1CCC(N2C(=O)c3ccc(NCCC[C@H]4C[C@H](n5cc(-c6nccc7[nH]ncc67)c(C6CC6)n5)C4)cc3C2=O)C(=O)N1` (stereo partly drawn) [GS-626, 5-((3-(trans-3-(3-Cyclopropyl-4-(1H-pyrazolo[4,3-c]pyridin-4-yl)-1H-pyrazol-1-yl)cyclobutyl)propyl)amino)-2-(2,6-dioxopiperidin-3-yl)isoindoline-1,3-dione], the IC50 in experiment [1] (setting [3]) was over 1 µM; in experiment [1] (setting [7]), 0.01 to 0.1 µM; in experiment [2] (setting [5]), 0.01 to 0.1 µM; in experiment [2] (setting [8]), 0.01 to 0.1 µM.
Take `O=C1CCC(N2C(=O)c3ccc(NC[C@H]4C[C@H](n5cc(-c6cc7[nH]ccc7cn6)c(C6CC6)n5)C4)cc3C2=O)C(=O)N1` (stereo partly drawn) [GS-282, 5-(((trans-3-(3-Cyclopropyl-4-(1H-pyrrolo[3,2-c]pyridin-6-yl)-1H-pyrazol-1-yl)cyclobutyl)methyl)amino)-2-(2,6-dioxopiperidin-3-yl)isoindoline-1,3-dione]: the IC50 in experiment [1] (setting [3]) is 0.1 to 1 µM; in experiment [1] (setting [4]), 0.01 to 0.1 µM; in experiment [2] (setting [5]), 0.01 to 0.1 µM; in experiment [2] (setting [6]), under 0.01 µM.
`O=C1CCC(N2Cc3c(Nc4ccnc(Nc5cccc(N6CCC(N7CCCCC7)CC6)c5)n4)cccc3C2=O)C(=O)N1` (stereo not drawn) [GS-094, 3-(4-((2-((3-([1,4′-Bipiperidin]-1′-yl)phenyl)amino)pyrimidin-4-yl)amino)-1-oxoisoindolin-2-yl)piperidine-2,6-dione]: the IC50 in experiment [1] (setting [3]), in experiment [1] (setting [4]), in experiment [2] (setting [5]) and in experiment [2] (setting [6]) was over 1 µM each time.
Turning to `O=C1CCC(N2C(=O)c3ccc(NCCC[C@H]4C[C@H](n5cc(-c6cccc(N7CCOCC7)c6)cn5)C4)cc3C2=O)C(=O)N1` (stereo partly drawn) [GS-241, 2-(2,6-Dioxopiperidin-3-yl)-5-((3-(trans-3-(4-(3-morpholinophenyl)-1H-pyrazol-1-yl)cyclobutyl)propyl)amino)isoindoline-1,3-dione], the IC50 in experiment [1] (setting [3]) was over 1 µM; in experiment [1] (setting [4]), 0.1 to 1 µM; in experiment [2] (setting [5]), 0.1 to 1 µM; in experiment [2] (setting [6]) it was 0.1 to 1 µM.
Regarding `Cc1nn(CCCCCCNc2ccc3c(c2)C(=O)N(C2CCC(=O)NC2=O)C3=O)c(C)c1-c1ncccn1` (stereo not drawn) [GS-150, 5-((6-(3,5-Dimethyl-4-(pyrimidin-2-yl)-1H-pyrazol-1-yl)hexyl)amino)-2-(2,6-dioxopiperidin-3-yl)isoindoline-1,3-dione], the IC50 in experiment [1] (setting [3]) was 0.1 to 1 µM; in experiment [1] (setting [4]), under 0.01 µM; in experiment [2] (setting [5]), 0.1 to 1 µM; in experiment [2] (setting [6]), 0.01 to 0.1 µM.
On to `N#Cc1ccc2ncc(-c3cnn(CCCCCCNc4ccc5c(c4)C(=O)N(C4CCC(=O)NC4=O)C5=O)c3)nc2c1` (stereo not drawn) [GS-163, 3-(1-(6-((2-(2,6-Dioxopiperidin-3-yl)-1,3-dioxoisoindolin-5-yl)amino)hexyl)-1H-pyrazol-4-yl)quinoxaline-6-carbonitrile], for which the IC50 was 0.1 to 1 µM in experiment [1] (setting [3]), under 0.01 µM in experiment [1] (setting [4]), 0.1 to 1 µM in experiment [2] (setting [5]) and 0.01 to 0.1 µM in experiment [2] (setting [6]).
As for `Cc1nn(C2CC(CCCNc3ccc4c(c3)C(=O)N(C3CCC(=O)NC3=O)C4=O)C2)c(C)c1-c1cnc2cccc(F)c2n1` (stereo not drawn) [GS-156, 2-(2,6-Dioxopiperidin-3-yl)-5-((3-(3-(4-(8-fluoroquinoxalin-2-yl)-3,5-dimethyl-1H-pyrazol-1-yl)cyclobutyl)propyl)amino)isoindoline-1,3-dione], the IC50 in experiment [1] (setting [3]) was over 1 µM; in experiment [1] (setting [4]), under 0.01 µM; in experiment [2] (setting [5]), over 1 µM; in experiment [2] (setting [6]), 0.1 to 1 µM.
As for `O=C(Cn1cc(-c2cnc3ccccc3n2)c(C2CC2)n1)NCc1ccc2c(c1)C(=O)N(C1CCC(=O)NC1=O)C2=O` (stereo not drawn) [GS-271, 2-(3-Cyclopropyl-4-(quinoxalin-2-yl)-1H-pyrazol-1-yl)-N-((2-(2,6-dioxopiperidin-3-yl)-1,3-dioxoisoindolin-5-yl)methyl)acetamide], the IC50 in experiment [1] (setting [3]) was 0.1 to 1 µM; in experiment [1] (setting [4]) it was 0.01 to 0.1 µM; in experiment [2] (setting [5]), 0.01 to 0.1 µM; in experiment [2] (setting [6]), 0.01 to 0.1 µM.
In the case of `O=C1CCC(N2C(=O)c3ccc(NC[C@H]4C[C@H](n5cc(-c6ncccc6C(F)(F)F)c(C6CC6)n5)C4)cc3C2=O)C(=O)N1` (stereo partly drawn) [GS-277, 5-(((trans-3-(3-Cyclopropyl-4-(3-(trifluoromethyl)pyridin-2-yl)-1H-pyrazol-1-yl)cyclobutyl)methyl)amino)-2-(2,6-dioxopiperidin-3-yl)isoindoline-1,3-dione], the IC50 in experiment [1] (setting [3]), in experiment [1] (setting [4]), in experiment [2] (setting [5]) and in experiment [2] (setting [6]) was under 0.01 µM in each case.

For the origin of these results see patent US20240050428A1 (Cullgen (Shanghai), Inc., priority 2020, published 2024).
